We go through 30 molecules from article PMC8759733 (Journal of Enzyme Inhibition and Medicinal Chemistry, 2021).

The target in assay [1] is butyrylcholinesterase (BChE) (Equus caballus, UniProt P81908). Put plainly: Cholinesterase inhibition activity assay. Type of assay: biochemical, Equine serum. The settings on record: read-out: BChE Percentage of inhibition at 4 µg/mL.
The target in assay [2] is Acetylcholinesterase (AChE) (Electrophorus electricus, UniProt O42275). Kind of assay: Cholinesterase inhibition activity assay. The class given is biochemical. To be noted: for inhibition at 1 µg/mL: read-out: Percentage of AChE inhibition at 1 µg/mL.
In another assay the target is AChE (Electrophorus electricus, UniProt O42275). Put plainly: AChE enzyme kinetic study. The class given is biochemical. To be noted: substrate ATCI 0.43-6.90 mM; Lineweaver-Burk plot.

Entries after “also recorded” stand apart in the source; their conditions may differ.

In general, IC50 refers to the concentration that gives 50% inhibition. Read a low IC50 as inhibition by little substance.

butyrylcholinesterase (BChE), sequence (P81908 whole entry): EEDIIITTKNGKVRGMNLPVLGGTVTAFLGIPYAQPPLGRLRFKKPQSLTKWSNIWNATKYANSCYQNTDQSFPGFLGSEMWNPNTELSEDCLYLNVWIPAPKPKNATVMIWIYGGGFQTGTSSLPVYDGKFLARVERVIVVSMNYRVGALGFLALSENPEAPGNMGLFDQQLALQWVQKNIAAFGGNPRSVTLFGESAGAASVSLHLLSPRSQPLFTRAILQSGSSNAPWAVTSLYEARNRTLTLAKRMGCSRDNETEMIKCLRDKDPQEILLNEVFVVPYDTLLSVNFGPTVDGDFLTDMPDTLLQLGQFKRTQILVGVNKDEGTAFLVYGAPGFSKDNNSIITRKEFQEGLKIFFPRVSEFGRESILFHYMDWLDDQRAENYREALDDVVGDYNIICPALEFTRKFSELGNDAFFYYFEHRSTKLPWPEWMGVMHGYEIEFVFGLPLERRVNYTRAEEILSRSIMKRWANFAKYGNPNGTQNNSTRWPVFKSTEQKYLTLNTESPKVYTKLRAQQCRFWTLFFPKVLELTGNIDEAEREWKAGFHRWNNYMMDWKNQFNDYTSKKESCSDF
Acetylcholinesterase (AChE), sequence (O42275 24-633): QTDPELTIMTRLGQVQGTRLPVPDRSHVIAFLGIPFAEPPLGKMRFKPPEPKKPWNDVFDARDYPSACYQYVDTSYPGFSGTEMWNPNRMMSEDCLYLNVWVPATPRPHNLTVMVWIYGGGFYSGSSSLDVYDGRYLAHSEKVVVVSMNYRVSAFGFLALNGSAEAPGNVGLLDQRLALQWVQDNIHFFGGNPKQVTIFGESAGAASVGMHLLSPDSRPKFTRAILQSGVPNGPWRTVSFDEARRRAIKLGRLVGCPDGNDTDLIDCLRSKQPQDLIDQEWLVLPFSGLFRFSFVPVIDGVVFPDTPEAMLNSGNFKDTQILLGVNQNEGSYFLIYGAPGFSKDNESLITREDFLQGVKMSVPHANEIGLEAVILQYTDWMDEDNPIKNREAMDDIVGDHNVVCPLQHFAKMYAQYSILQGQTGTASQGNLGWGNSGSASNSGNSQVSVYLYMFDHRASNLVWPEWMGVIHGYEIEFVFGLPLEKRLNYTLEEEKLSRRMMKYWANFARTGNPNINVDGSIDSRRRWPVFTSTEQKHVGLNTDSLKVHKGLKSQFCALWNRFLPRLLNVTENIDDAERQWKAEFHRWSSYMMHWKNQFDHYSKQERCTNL
AChE, sequence (O42275 24-633): as above

Turning to `CCC#CCOc1ccc2c(=O)c3ccccc3oc2c1` [Compound 19, 3-(Pent-2-yn-1-yloxy)-9H-xanthen-9-one], the inhibition at 4 µg/mL in assay [1] turned out to be 5.24 ± 0.25%. In addition, in assay [2], half-maximal inhibition (IC50) was put at 1210 ± 50 nM.
Turning to `CC(C)Oc1ccc2c(=O)c3ccccc3oc2c1` [Compound 4, 3-Isopropoxy-9H-xanthen-9-one], the inhibition at 4 µg/mL in assay [1] is 20.7 ± 1.75%. Besides, the IC50 in assay [2] was 1410 ± 130 nM.
For the molecule `CCOC(=O)COc1ccc2c(=O)c3ccccc3oc2c1` [Compound 28, Ethyl 2-((9-oxo-9H-xanthen-3-yl)oxy)acetate], the inhibition at 4 µg/mL in assay [1] worked out at 4.11 ± 0.35%. In assay [2], this molecule came in with an IC50 of 880 ± 150 nM. The “Mode of AChE inhibition” value at AChE is on record as “mixed inhibition mechanism; also recorded: mixed-mode inhibition”.
Consider `CC(C)COc1ccc2c(=O)c3ccccc3oc2c1` [Compound 5, 3-Isobutoxy-9H-xanthen-9-one], for which, in assay [1], the inhibition at 4 µg/mL was 9.78 ± 1.22%. This molecule returned an IC50 in assay [2] of 1180 ± 110 nM.
The like results for `O=c1c2ccccc2oc2cc(OCCCc3ccccc3)ccc12` [Compound 22, 3-(3-Phenylpropoxy)-9H-xanthen-9-one] were, in that order, 15.5 ± 1.93% and 1220 ± 120 nM.
The like results for `O=c1c2ccccc2oc2cc(OCC3CCC3)ccc12` [Compound 10, 3-(Cyclobutylmethoxy)-9H-xanthen-9-one] were, in that order, 7.01 ± 1.16% and 1610 ± 110 nM.
The like results for `C=C(C)COc1ccc2c(=O)c3ccccc3oc2c1` [Compound 15, 3-((2-Methylallyl)oxy)-9H-xanthen-9-one] were, in that order, 2.33 ± 0.3% and 1600 ± 150 nM.
For the molecule `CC(C)=CCCOc1ccc2c(=O)c3ccccc3oc2c1` [Compound 17, 3-((4-Methylpent-3-en-1-yl)oxy)-9H-xanthen-9-one], in assay [1], the inhibition at 4 µg/mL stood at 20.9 ± 3.03%. The same molecule gave an IC50 in assay [2] of 1060 ± 120 nM.
In the case of `C=CCCOc1ccc2c(=O)c3ccccc3oc2c1` [Compound 12, 3-(But-3-en-1-yloxy)-9H-xanthen-9-one], in assay [1], the inhibition at 4 µg/mL stood at 5.33 ± 0.17%. In assay [2], half-maximal inhibition (IC50) was put at 2090 ± 210 nM.
Take `O=c1c2ccccc2oc2cc(OCCCCc3ccccc3)ccc12` [Compound 23, 3-(4-Phenylbutoxy)-9H-xanthen-9-one]: in assay [1], the inhibition at 4 µg/mL is 9.19 ± 0.55%. The molecule further showed an IC50 in assay [2] of 880 ± 40 nM. Moreover, the “Mode of AChE inhibition” value at AChE is “mixed inhibition mechanism; also recorded: mixed-mode inhibition”.
As to `CC[C@H](C)COc1ccc2c(=O)c3ccccc3oc2c1` [Compound 7, (S)-3-(2-Methylbutoxy)-9H-xanthen-9-one], the inhibition at 4 µg/mL in assay [1] is 24.8 ± 1.96%. Moreover, the IC50 in assay [2] was 1740 ± 200 nM.
Turning to `O=c1c2ccccc2oc2cc(OCc3ccccc3)ccc12` [Compound 21, 3-(Benzyloxy)-9H-xanthen-9-one], in assay [1], the inhibition at 4 µg/mL turned out to be 5.04 ± 0.7%. This molecule came in with an IC50 in assay [2] of 990 ± 190 nM.
`C=CCCCCOc1ccc2c(=O)c3ccccc3oc2c1` [Compound 14, 3-(Hex-5-en-1-yloxy)-9H-xanthen-9-one]: the inhibition at 4 µg/mL in assay [1] stood at 16.4 ± 1.34%. For the same molecule, in assay [2], the IC50 is above 3400 nM and the inhibition at 1 µg/mL was below 50%.
On to `CCC(CC)COc1ccc2c(=O)c3ccccc3oc2c1` [Compound 8, 3-(2-Ethylbutoxy)-9H-xanthen-9-one], for which the inhibition at 4 µg/mL in assay [1] is 12.6 ± 1.26%. The same molecule gave an IC50 in assay [2] of 1150 ± 190 nM.
As to `O=c1c2ccccc2oc2cc(O)ccc12` [Compound 1, 3-hydroxyxanthone], the inhibition at 4 µg/mL in assay [1] amounted to 6.55 ± 0.82%. Moreover, the IC50 in assay [2] is 2390 ± 110 nM.
As to `C[C@@H](CO)COc1ccc2c(=O)c3ccccc3oc2c1` [Compound 30, (S)-3-(3-hydroxy-2-methylpropoxy)-9H-xanthen-9-one], the inhibition at 4 µg/mL in assay [1] came to 5.48 ± 0.31%. Also, in assay [2], the IC50 is above 3520 nM and the inhibition at 1 µg/mL was below 50%.
Turning to `CC(C)CCCOc1ccc2c(=O)c3ccccc3oc2c1` [Compound 9, 3-((4-Methylpentyl)oxy)-9H-xanthen-9-one], the inhibition at 4 µg/mL in assay [1] was 11.8 ± 0.98%. The molecule also yielded an IC50 in assay [2] of 2070 ± 60 nM.
The like results for `CC(C)CCOc1ccc2c(=O)c3ccccc3oc2c1` [Compound 6, 3-(Isopentyloxy)-9H-xanthen-9-one] were, in that order, 5.47 ± 0.61% and 1840 ± 210 nM.
On the same counts, the results for `CC(C)=CCOc1ccc2c(=O)c3ccccc3oc2c1` [Compound 16, 3-((3-Methylbut-2-en-1-yl)oxy)-9H-xanthen-9-one] are 7.96 ± 1.22% and 1860 ± 150 nM.
Consider `C[C@H](CO)COc1ccc2c(=O)c3ccccc3oc2c1` [Compound 29, (R)-3-(3-Hydroxy-2-methylpropoxy)-9H-xanthen-9-one], for which, in assay [1], the inhibition at 4 µg/mL is 13.9 ± 0.96%. Moreover, in assay [2], the IC50 is above 3520 nM and the inhibition at 1 µg/mL was below 50%.
On to `C=CCCCOc1ccc2c(=O)c3ccccc3oc2c1` [Compound 13, 3-(Pent-4-en-1-yloxy)-9H-xanthen-9-one], for which the inhibition at 4 µg/mL in assay [1] worked out at 20.9 ± 3.07%. Moreover, in assay [2], the IC50 was above 3570 nM and the inhibition at 1 µg/mL is below 50%.
In the case of `COCCOCCOc1ccc2c(=O)c3ccccc3oc2c1` [Compound 26, 3-(2-(2-Methoxyethoxy)ethoxy)-9H-xanthen-9-one], the inhibition at 4 µg/mL in assay [1] came to 17.8 ± 1.6%. Also, the IC50 in assay [2] is 970 ± 60 nM.
The like results for `COC(=O)COc1ccc2c(=O)c3ccccc3oc2c1` [Compound 27, Methyl 2-((9-oxo-9H-xanthen-3-yl)oxy)acetate] were, in that order, 7.69 ± 0.34% and 1280 ± 130 nM.
In the case of `CC#CCOc1ccc2c(=O)c3ccccc3oc2c1` [Compound 18, 3-(But-2-yn-1-yloxy)-9H-xanthen-9-one], in assay [1], the inhibition at 4 µg/mL is 4.53 ± 0.88%. In addition, in assay [2], the IC50 is above 3790 nM and the inhibition at 1 µg/mL was below 50%.
The like results for `COCCCOc1ccc2c(=O)c3ccccc3oc2c1` [Compound 24, 3-(3-Methoxypropoxy)-9H-xanthen-9-one] were, in that order, 11 ± 1.38%, above 3520 nM and below 50%.
Take `CCCOc1ccc2c(=O)c3ccccc3oc2c1` [Compound 2, 3-Propoxy-9H-xanthen-9-one]: in assay [1], the inhibition at 4 µg/mL was 11.9 ± 1.74%. This molecule showed an IC50 in assay [2] of 1860 ± 40 nM.
As for `O=c1c2ccccc2oc2cc(OCCC3CCCCC3)ccc12` [Compound 11, 3-(2-Cyclohexylethoxy)-9H-xanthen-9-one], in assay [1], the inhibition at 4 µg/mL was 24.3 ± 2.29%. The half-inhibitory concentration (IC50) in assay [2] worked out at 1270 ± 130 nM.
On the same counts, the results for `C#CC(C)Oc1ccc2c(=O)c3ccccc3oc2c1` (centres unmarked) [Compound 20, 3-(But-3-yn-2-yloxy)-9H-xanthen-9-one] are 5 ± 0.74% and 2240 ± 170 nM.
On the same counts, the results for `CCCCOc1ccc2c(=O)c3ccccc3oc2c1` [Compound 3, 3-Butoxy-9H-xanthen-9-one] are 17.6 ± 1.89% and 1400 ± 140 nM.
The like results for `COCOCCOc1ccc2c(=O)c3ccccc3oc2c1` [Compound 25, 3-(2-(Methoxymethoxy)ethoxy)-9H-xanthen-9-one] were, in that order, 10.3 ± 1.24% and 1370 ± 120 nM.
